From patent publication US20180112006A1, “AGENTS, SYSTEMS AND METHODS FOR TREATING CANCER” (THE GENERAL HOSPITAL CORPORATION, priority 2015, published 2018)

Key:
NSC-TR-TK-GF1 cells [1] = test: Ganciclovir elimination of NSC-TR-TK-GF1 in vitro; format: cell-based, mouse; details: 10 mg/ml GCV
Method: (FIG. 11A) Representative phase and fluorescent images of NSC-TR-TK-GF1 in the presence or absence of 10 mg/ml GCV. Plot showing the Fluc activity of transduced cells in vitro. (FIG. 11B) Viability of MBr-FmC cells co-cultured with modified NSC at 1:1 ratio as measured by Fluc activity in vitro. The effects of NSC engineered with TK or TK-TR are shown. (FIG. 11C) Upper, outline of the experiment. Representative fluorescent images of metastatic MBr-RmC tumors in the mouse brain with or without NSC-TR-TK-GF1 administration to show post-tumor treatment (scale bar=100 μm).
To translate NSC-S-TRAIL therapy for brain metastasis into clinics, it is critical to follow the long-term fate of NSCs post-tumor treatment and ultimately, selectively eradicate therapeutic NSCs to avoid continuous access of therapeutic agent to normal brain tissue and to circumvent any malignant transformation of NSCs. To address this, NSC-S-TRAIL expressing cells were engineered to further express herpes simplex virus thymidine kinase (HSV-TK) and GFP-Fluc (GF1) (NSC-TR-TK-GF1) and tested for efficacy of thymidine kinase suicide therapy in vitro. […] Further, the efficacy of ganciclovir to eradicate NSCs in non-tumor bearing brain was tested. […] Next, the eradication of therapeutic NSCs post-tumor treatment in vivo was tested. NSC-TR-TK-GF1 expressing cells were intracranially injected into MBr-RmC tumor-bearing brains.

NSC-TR-TK-GF1 cells [2] = test: Ganciclovir eradication of NSC-TR-TK-GF1 in mouse brains, Fluc bioluminescence imaging; format: in vivo, mice; details: for eradication of NSCs in non-tumor bearing brain: ganciclovir 75 mg/kg i.p. daily
Method: Two hundred thousand NSC-TR-TK-GF1 cells were either intracranially or intracarotidly injected in nude mice. Seven days after intracranial injection, or 3 days after intracarotid injection, daily PBS or ganciclovir (75 mg/kg body weight) were administrated via intraperitoneal (i.p.) injection for 2 weeks. NSC fate was assessed by bioluminescence imaging at various time points. To assess the eradication of therapeutic NSC post-tumor treatment, MBr-RmC cells (50 000 cells/mouse) were intracranially injected in nude mice and tumor-bearing mice were injected intratumorally with NSC-TR-TK-GF1 (50 000 cells/mouse) in the mouse brain. Daily PBS or ganciclovir were administrated via intraperitoneal injection after 4 days of NSC injection and the fate of NSCs was assessed by bioluminescence imaging at different time points.

hNSC-TR-TK = test: Ganciclovir eradication of modified human NSCs in vitro; format: cell-based; set-up: dose or concentration left out as unconfirmed
Method: (§1) (FIG. 6A) Plot showing the viability of MBr-FmC cells co-cultured with engineered human NSCs expressing TRAIL (TR), both TRAIL and HSV-TK (TR-TK) or GFP as measured by Fluc activity in vitro. (FIG. 6B) Plot showing the viability of modified human NSCs treated with ganciclovir (10 mg/ml). (FIG. 6C) Plot showing the viability of MBr-FmC cells co-cultured with engineered human MSC expressing TRAIL (TR), both TRAIL and HSV-TK (TR-TK) or GFP. (FIG. 6D) Plot showing the viability of modified human MSCs treated with ganciclovir (10 mg/ml).
(§2) To make the therapeutic strategy more clinically relevant, human NSCs and human MSCs were used and the efficacy of the TRAIL/thymidine kinase system on metastatic tumor cells was tested. Human NSCs and MSCs were engineered to express secreted TRAIL (hNSC-TR/hMSC-TR) or co-express secreted TRAIL and HSV-TK (hNSC-TR-TK/hMSC-TR-TK), and established co-cultures of MBr-FmC with different proportions of modified human NSCs and MSCs.

hMSC-TR-TK = test: Ganciclovir eradication of modified human MSCs in vitro; format: cell-based; set-up: dose or concentration left out as unconfirmed
Method: as §1, §2

metastatic MBr cells = test: TRAIL killing of tumor cells versus normal cells; format: cell-based

Nc1nc(O)c2ncn(COC(CO)CO)c2n1 [ganciclovir]
elimination of modified NSC in vitro (Fluc, GFP) (NSC-TR-TK-GF1 cells [1]): eliminated | eradication of therapeutic NSCs post-tumor treatment (NSC-TR-TK-GF1 cells [2]; MBr-RmC tumor-bearing brains, vs PBS): eradication of therapeutic NSC-TR-TK-GF1 | eradication of NSCs in non-tumor bearing brain (NSC-TR-TK-GF1 cells [2]; NSCs implanted via intracranial route): substantially eradicated | eradication of NSCs in non-tumor bearing brain (NSC-TR-TK-GF1 cells [2]; NSCs via intracarotid route): substantially eradicated | eradication of hNSC-TR-TK in vitro (hNSC-TR-TK): successfully eradicated | eradication of hMSC-TR-TK in vitro (hMSC-TR-TK): successfully eradicated

TRAIL
killing of tumor cells versus normal cells (metastatic MBr cells): specifically killed the tumor cells instead of the normal cells
